Results reported in ChEMBL document CHEMBL3120136 (J Med Chem, 2014).
Converted amounts (≈) assume the structure as drawn. Values belong to the molecule of their own block, whether it stands above or below them.

Tests used:
Hepatitis C virus [1] = assay: Antiviral activity against Hepatitis C virus genotype 3 infected in human HuH7 cells assessed as decrease in replicon RNA level after 2 days by TaqMan Gold RT-PCR analysis; type: functional, organism-based, Hepacivirus hominis; conditions: genotype 3, Huh-7, 48 h
Hepatitis C virus [2] = assay: Antiviral activity against Hepatitis C virus genotype 1b infected in human HuH7 cells assessed as decrease in replicon RNA level after 2 days by TaqMan Gold RT-PCR analysis; type: functional, organism-based, Hepacivirus hominis; conditions: Huh-7, 48 h
Hepatitis C virus [3] = assay: Antiviral activity against Hepatitis C virus genotype 2 infected in human HuH7 cells assessed as decrease in replicon RNA level after 2 days by TaqMan Gold RT-PCR analysis; type: functional, organism-based, Hepacivirus hominis; conditions: genotype 2, Huh-7, 48 h
[4] = Inhibition of Hepatitis C virus genotype 3a NS3/4A protease using Ac-DE-Dap(QXL520)-EE-Abu-psi-[COO]-AS-Cys(5-FAMsp)-NH2 as substrate by FRET analysis; design: species or system Hepatitis C virus subtype 3a
[5] = Inhibition of Hepatitis C virus genotype 2b NS3/4A protease using Ac-DE-Dap(QXL520)-EE-Abu-psi-[COO]-AS-Cys(5-FAMsp)-NH2 as substrate by FRET analysis; design: species or system Hepatitis C virus subtype 2b
[6] = Inhibition of Hepatitis C virus genotype 6 NS3/4A protease using Ac-DE-Dap(QXL520)-EE-Abu-psi-[COO]-AS-Cys(5-FAMsp)-NH2 as substrate by FRET analysis
[7] = Inhibition of Hepatitis C virus genotype 5 NS3/4A protease using Ac-DE-Dap(QXL520)-EE-Abu-psi-[COO]-AS-Cys(5-FAMsp)-NH2 as substrate by FRET analysis
[8] = Inhibition of Hepatitis C virus genotype 4 NS3/4A protease using Ac-DE-Dap(QXL520)-EE-Abu-psi-[COO]-AS-Cys(5-FAMsp)-NH2 as substrate by FRET analysis
[9] = Inhibition of Hepatitis C virus genotype 1b NS3/4A protease using Ac-DE-Dap(QXL520)-EE-Abu-psi-[COO]-AS-Cys(5-FAMsp)-NH2 as substrate by FRET analysis; design: species or system Hepatitis C virus subtype 1b
[10] = Inhibition of Hepatitis C virus genotype 1a NS3/4A protease using Ac-DE-Dap(QXL520)-EE-Abu-psi-[COO]-AS-Cys(5-FAMsp)-NH2 as substrate by FRET analysis; design: species or system Hepatitis C virus subtype 1a
Hepatitis C virus [11] = assay: Antiviral activity against Hepatitis C virus infected in human HuH7 cells assessed as inhibition of HCV subgenomic replicon replication after 72 hrs by ELISA; type: functional, organism-based, Hepacivirus hominis, Huh-7; conditions: Hepatitis C virus, Huh-7, 72 h; read-out: EC50
[12] = Inhibition of Hepatitis C virus full-length NS3/4A protease assessed as quenched-fluorogenic RET-S1 substrate cleavage incubated for 10 mins prior to substrate addition by FRET analysis; design: species or system Hepacivirus hominis
[13] = Dissociation constant, pKa of the compound; type: physicochemical
Hepatitis C virus [14] = assay: Ratio of EC50 for Hepatitis C virus harboring NS3/4A protease A156T mutant gene to EC50 for Hepatitis C virus harboring wild type NS3/4A protease infected in human HuH7 cells; type: functional, Hepacivirus hominis, Huh-7
Hepatitis C virus [15] = assay: Antiviral activity against Hepatitis C virus harboring NS3/4A protease A156T mutant gene infected in human HuH7 cells assessed as inhibition of HCV subgenomic replicon replication after 72 hrs by ELISA; type: functional, organism-based, Hepacivirus hominis; conditions: Huh-7, 72 h
Hepatitis C virus [16] = assay: Antiviral activity against Hepatitis C virus harboring wild type NS3/4A protease infected in human HuH7 cells assessed as inhibition of HCV subgenomic replicon replication after 72 hrs by ELISA; type: functional, organism-based, Hepacivirus hominis; conditions: Huh-7, 72 h
Hepatitis C virus [17] = assay: Antiviral activity against Hepatitis C virus […] isolate Con1 harboring NS3/4A protease A156T mutant gene infected in human HuH7 cells assessed as inhibition of HCV replicon replication by luciferase assay; type: functional, organism-based, Hepacivirus hominis; conditions: isolate Con1, Huh-7
Hepatitis C virus [18] = assay: Antiviral activity against Hepatitis C virus […] isolate Con1 harboring wild type NS3/4A protease infected in human HuH7 cells assessed as inhibition of HCV replicon replication by luciferase assay; type: functional, organism-based, Hepacivirus hominis; conditions: isolate Con1, Huh-7
NS3 protease = NS3 protease (Hepacivirus C, UniProt C1KIQ2, A156T); assay: Inhibition of Hepatitis C virus genotype 1a NS3/4A protease A156T mutant expressed in Escherichia coli BL21 (DE3) cells assessed as substrate cleavage using Ac-DE-Dap(QXL520)-EE-Abu-psi-[COO]AS-C(5-FAMsp)-NH2 as substrate by plate reader analysis; design: species or system Hepatitis C virus subtype 1a
Chain of NS3 protease (C1KIQ2 entry or part of it A156T): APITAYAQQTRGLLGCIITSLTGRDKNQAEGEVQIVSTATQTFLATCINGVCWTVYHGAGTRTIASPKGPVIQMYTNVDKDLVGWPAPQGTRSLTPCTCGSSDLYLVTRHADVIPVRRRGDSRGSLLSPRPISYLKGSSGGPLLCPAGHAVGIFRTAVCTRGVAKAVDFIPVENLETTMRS

[19] = Inhibition of Hepatitis C virus genotype 1a wild type NS3/4A protease expressed in Escherichia coli BL21 (DE3) cells assessed as substrate cleavage using Ac-DE-Dap(QXL520)-EE-Abu-psi-[COO]AS-C(5-FAMsp)-NH2 as substrate by plate reader analysis; design: species or system Hepatitis C virus subtype 1a
[20] = Ratio of AUC (0 to 24 hrs) in liver to plasma in Sprague-Dawley rat at 30 mg/kg, po by HPLC-MS/MS analysis; type: ADME, organism-based; design: dose 30 mg/kg, route oral; conditions: Sprague-Dawley, liver and plasma, read-out: Ratio AUC
[21] = AUC (0 to 24 hrs) in Sprague-Dawley rat plasma at 30 mg/kg, po by HPLC-MS/MS analysis; type: ADME, organism-based; design: time < 24 hr, dose 30 mg/kg, route oral
[22] = AUC (0 to 24 hrs) in Sprague-Dawley rat liver at 30 mg/kg, po by HPLC-MS/MS analysis; type: ADME, organism-based; design: time < 24 hr, dose 30 mg/kg, route oral
[23] = Plasma clearance in rat assessed as extraction ratio; type: ADME, organism-based; conditions: read-out: ERH
[24] = Efflux ratio of permeability from basolateral to apical side over apical to basolateral side in human Caco2 cells; type: ADME, cell-based; conditions: Caco-2
[25] = Permeability from apical to basolateral side of human Caco2 cells; type: ADME, cell-based; conditions: Caco-2, read-out: permeability
[26] = Aqueous solubility of the compound at pH 6.5 by modified shake-flask method; type: physicochemical
[27] = Aqueous solubility of the compound at pH 7.4 by modified shake-flask method; type: physicochemical
[28] = Aqueous solubility of the compound at pH 1.2 by modified shake-flask method; type: physicochemical
[29] = Metabolic stability in dog hepatocytes assessed as extraction ratio at 1 uM; type: ADME, cell-based, Canis lupus familiaris, Hepatocyte; conditions: read-out: ERH
[30] = Metabolic stability in cynomolgus monkey hepatocytes assessed as extraction ratio at 1 uM; type: ADME, cell-based, Macaca fascicularis, Hepatocyte; conditions: read-out: ERH
[31] = Metabolic stability in human hepatocytes assessed as extraction ratio at 1 uM; type: ADME, cell-based, Hepatocyte; conditions: read-out: ERH
[32] = Metabolic stability in rat hepatocytes assessed as extraction ratio at 1 uM; type: ADME, cell-based, Hepatocyte; conditions: read-out: ERH
[33] = Lipophilicity, log D of the compound; type: physicochemical; conditions: octanol/water
[34] = Ratio of drug level in liver to plasma in dog; type: ADME, tissue-based, Canis lupus familiaris; conditions: liver and plasma
[35] = Oral bioavailability in monkey liver; type: ADME, organism-based, Macaca mulatta; conditions: rhesus monkey
[36] = Oral bioavailability in rat liver; type: ADME, organism-based
[37] = biological target: Voltage-gated inwardly rectifying potassium channel KCNH2 (Homo sapiens, UniProt Q12809); assay: Inhibition of human ERG at 10 uM
Chain of Voltage-gated inwardly rectifying potassium channel KCNH2 (Q12809 whole entry): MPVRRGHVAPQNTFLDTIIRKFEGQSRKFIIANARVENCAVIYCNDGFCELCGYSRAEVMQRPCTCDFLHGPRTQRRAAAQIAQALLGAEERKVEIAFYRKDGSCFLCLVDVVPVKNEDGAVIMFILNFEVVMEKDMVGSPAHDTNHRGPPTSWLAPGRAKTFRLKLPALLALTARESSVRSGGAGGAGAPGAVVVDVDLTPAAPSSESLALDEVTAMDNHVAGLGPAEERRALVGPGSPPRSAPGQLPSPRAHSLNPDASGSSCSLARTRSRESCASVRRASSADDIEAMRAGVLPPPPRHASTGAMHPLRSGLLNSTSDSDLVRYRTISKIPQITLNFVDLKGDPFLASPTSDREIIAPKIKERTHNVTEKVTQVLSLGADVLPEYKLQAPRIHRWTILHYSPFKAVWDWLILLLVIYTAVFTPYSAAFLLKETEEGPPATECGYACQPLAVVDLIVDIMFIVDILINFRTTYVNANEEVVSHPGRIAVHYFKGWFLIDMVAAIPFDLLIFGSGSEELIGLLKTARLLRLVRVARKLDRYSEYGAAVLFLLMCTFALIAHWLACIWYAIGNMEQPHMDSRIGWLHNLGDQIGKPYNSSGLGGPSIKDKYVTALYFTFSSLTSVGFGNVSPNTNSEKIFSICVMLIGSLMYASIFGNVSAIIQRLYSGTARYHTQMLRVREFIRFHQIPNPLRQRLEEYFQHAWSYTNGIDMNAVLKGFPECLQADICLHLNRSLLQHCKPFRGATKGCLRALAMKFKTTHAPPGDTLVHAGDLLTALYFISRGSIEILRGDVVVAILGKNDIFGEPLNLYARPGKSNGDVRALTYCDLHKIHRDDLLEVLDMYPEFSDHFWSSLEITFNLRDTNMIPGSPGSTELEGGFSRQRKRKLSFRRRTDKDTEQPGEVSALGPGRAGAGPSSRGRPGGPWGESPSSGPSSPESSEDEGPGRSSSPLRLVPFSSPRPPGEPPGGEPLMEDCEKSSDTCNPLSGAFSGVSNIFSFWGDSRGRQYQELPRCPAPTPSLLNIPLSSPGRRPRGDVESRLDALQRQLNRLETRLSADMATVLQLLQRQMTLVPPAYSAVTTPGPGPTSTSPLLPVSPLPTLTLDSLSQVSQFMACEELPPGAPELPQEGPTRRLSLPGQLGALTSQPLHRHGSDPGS

Cytochrome P450 3A4 [38] = biological target: T1, Cytochrome P450 3A4 (Homo sapiens, UniProt P08684); assay: Time-dependent induction of CYP3A4 (unknown origin); type: ADME
T1 sequence (P08684 whole entry): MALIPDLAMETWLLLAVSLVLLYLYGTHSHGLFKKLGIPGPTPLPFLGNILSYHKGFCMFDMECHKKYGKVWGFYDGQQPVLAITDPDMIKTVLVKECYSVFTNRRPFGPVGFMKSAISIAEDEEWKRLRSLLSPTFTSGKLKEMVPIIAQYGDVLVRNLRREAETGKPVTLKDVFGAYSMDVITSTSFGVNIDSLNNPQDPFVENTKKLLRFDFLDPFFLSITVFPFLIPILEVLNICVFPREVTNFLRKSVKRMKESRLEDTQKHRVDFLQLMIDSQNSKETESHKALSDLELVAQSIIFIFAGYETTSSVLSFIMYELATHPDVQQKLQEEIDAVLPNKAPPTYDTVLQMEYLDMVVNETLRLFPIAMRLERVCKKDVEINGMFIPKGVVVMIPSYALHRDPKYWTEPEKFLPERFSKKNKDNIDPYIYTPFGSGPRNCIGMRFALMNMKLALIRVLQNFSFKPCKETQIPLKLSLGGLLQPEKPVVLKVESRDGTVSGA

Cytochrome P450 3A4 [39] = biological target: T1, Cytochrome P450 3A4; assay: Inhibition of CYP3A4 (unknown origin); type: ADME
Cytochrome P450 2D6 = Cytochrome P450 2D6 (Homo sapiens, UniProt P10635); assay: Inhibition of CYP2D6 (unknown origin); type: ADME
Chain of Cytochrome P450 2D6 (P10635 whole entry): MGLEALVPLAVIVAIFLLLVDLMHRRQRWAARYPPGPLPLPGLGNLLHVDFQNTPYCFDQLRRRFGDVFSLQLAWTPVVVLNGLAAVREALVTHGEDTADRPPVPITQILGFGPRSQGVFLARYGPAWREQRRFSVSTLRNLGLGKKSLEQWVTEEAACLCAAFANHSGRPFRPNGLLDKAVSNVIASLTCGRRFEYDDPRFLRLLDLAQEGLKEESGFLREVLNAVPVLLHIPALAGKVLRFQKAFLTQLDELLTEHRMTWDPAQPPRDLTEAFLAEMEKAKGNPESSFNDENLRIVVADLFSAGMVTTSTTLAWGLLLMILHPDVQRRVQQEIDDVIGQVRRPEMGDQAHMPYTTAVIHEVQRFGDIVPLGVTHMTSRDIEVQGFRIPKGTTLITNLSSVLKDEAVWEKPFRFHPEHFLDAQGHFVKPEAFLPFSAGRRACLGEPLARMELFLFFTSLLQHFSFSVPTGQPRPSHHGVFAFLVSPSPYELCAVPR

Cytochrome P450 2C19 = Cytochrome P450 2C19 (Homo sapiens, UniProt P33261); assay: Inhibition of CYP2C19 (unknown origin); type: ADME
Chain of Cytochrome P450 2C19 (P33261 whole entry): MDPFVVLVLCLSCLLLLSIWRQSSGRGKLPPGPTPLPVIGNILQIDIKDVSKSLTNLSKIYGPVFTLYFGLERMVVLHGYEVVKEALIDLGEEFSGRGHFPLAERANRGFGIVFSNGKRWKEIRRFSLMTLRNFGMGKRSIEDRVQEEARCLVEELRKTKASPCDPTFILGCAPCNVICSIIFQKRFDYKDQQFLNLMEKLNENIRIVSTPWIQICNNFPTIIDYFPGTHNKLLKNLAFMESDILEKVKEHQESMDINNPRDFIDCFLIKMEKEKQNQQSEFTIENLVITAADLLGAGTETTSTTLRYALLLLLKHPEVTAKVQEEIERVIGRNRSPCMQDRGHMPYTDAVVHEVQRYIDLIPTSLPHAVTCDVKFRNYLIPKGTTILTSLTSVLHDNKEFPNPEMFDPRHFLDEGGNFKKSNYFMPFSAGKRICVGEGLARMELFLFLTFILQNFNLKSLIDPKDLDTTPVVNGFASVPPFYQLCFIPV

Cytochrome P450 2C9 = Cytochrome P450 2C9 (Homo sapiens, UniProt P11712); assay: Inhibition of CYP2C9 (unknown origin); type: ADME
Chain of Cytochrome P450 2C9 (P11712 whole entry): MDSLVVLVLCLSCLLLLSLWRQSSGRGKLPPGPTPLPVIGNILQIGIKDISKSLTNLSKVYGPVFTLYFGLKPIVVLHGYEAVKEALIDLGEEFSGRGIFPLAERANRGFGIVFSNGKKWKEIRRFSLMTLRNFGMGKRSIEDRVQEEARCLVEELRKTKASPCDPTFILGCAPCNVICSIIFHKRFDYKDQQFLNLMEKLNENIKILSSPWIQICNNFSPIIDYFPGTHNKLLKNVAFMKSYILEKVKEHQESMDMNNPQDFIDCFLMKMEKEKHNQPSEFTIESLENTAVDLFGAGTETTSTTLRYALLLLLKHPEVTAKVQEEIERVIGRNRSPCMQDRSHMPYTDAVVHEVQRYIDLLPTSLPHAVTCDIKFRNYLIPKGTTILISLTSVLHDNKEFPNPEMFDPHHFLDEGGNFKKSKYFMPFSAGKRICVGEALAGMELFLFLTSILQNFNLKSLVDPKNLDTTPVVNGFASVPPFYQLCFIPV

Cytochrome P450 1A2 = biological target: T2, Cytochrome P450 1A2 (Homo sapiens, UniProt P05177); assay: Inhibition of CYP1A2 (unknown origin); type: ADME
T2 sequence (P05177 whole entry): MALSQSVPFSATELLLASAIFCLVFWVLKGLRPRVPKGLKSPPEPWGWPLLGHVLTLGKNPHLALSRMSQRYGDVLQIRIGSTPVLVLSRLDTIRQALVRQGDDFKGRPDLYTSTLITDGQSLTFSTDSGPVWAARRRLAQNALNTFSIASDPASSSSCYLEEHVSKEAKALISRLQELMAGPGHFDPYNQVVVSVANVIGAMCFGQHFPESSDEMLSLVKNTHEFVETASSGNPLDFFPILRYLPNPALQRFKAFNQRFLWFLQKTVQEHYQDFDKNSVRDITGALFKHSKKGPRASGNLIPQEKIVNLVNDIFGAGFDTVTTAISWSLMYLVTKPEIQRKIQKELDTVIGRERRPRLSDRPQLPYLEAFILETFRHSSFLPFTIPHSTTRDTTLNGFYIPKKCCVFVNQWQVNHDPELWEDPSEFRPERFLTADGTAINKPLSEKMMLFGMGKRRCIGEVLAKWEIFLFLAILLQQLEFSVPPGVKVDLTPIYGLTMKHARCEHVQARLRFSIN

[40] = Cytotoxicity against human MT4 cells; type: cell-based
Rattus norvegicus = assay: Volume of distribution at steady state in Sprague-Dawley rat at 1 mg/kg, iv by HPLC-MS/MS analysis; conditions: in vivo

Structure (SMILES): CC(C)(C)OC(=O)N[C@H]1CCCCC/C=C\[C@@H]2C[C@@]2(C(=O)NS(=O)(=O)C2CC2)NC(=O)[C@@H]2C[C@@H](OC(=O)N3Cc4cccc(F)c4C3)CN2C1=O [DANOPREVIR]
EC50 (Hepatitis C virus [1]): 20 nM
EC50 (Hepatitis C virus [2]): 1.6 nM
EC50 (Hepatitis C virus [3]): 20 nM
IC50 [4]: 3.5 nM
IC50 [5]: 1.6 nM
IC50 [6]: 0.2 nM
IC50 [7]: 0.2 nM
IC50 [8]: 0.2 nM
IC50 [9]: 0.2 nM
IC50 [10]: 0.2 nM
EC50 (Hepatitis C virus [11]): 2.4 nM
IC50 [12]: 1 nM
pKa [13]: 5.27
Ratio EC50 (Hepatitis C virus [14]): 2
EC50 (Hepatitis C virus [15]): 0.5 nM
EC50 (Hepatitis C virus [16]): < 0.25 nM
IC50 (Hepatitis C virus [17]): 5.7 nM
IC50 (Hepatitis C virus [18]): 0.24 nM
Ki (NS3 protease): 44.8 nM
Ki [19]: 1 nM
Kp [20]: 10
AUC(0-t) at 24 h [21]: 9500 ng·h/mL
AUC(0-t) at 24 h [22]: 90800 ng·h/mL
hepatic extraction ratio [23]: 0.04
efflux ratio [24]: > 2
Papp A→B [25]: < 2 ×10⁻⁶ cm/s
solubility thermodynamic [26]: 548 µg/mL (≈ 749 µM)
solubility thermodynamic [27]: > 1000 µg/mL
solubility thermodynamic [28]: 0.5 µg/mL (≈ 0.683 µM)
hepatic extraction ratio at 1 µM [29]: 0.23
hepatic extraction ratio at 1 µM [30]: 0.54
hepatic extraction ratio at 1 µM [31]: 0.58
hepatic extraction ratio at 1 µM [32]: 0.06
logD [33]: 2.1
Kp [34]: 30
bioavailability [35]: 78%
bioavailability [36]: 15%
inhibition (INH) [37]: Not Active
Activity (Cytochrome P450 3A4 [38]): Not Active
INH (Cytochrome P450 3A4 [39]): 12 µM
INH (Cytochrome P450 2D6): > 25 µM
INH (Cytochrome P450 2C19): > 25 µM
INH (Cytochrome P450 2C9): > 25 µM
INH (Cytochrome P450 1A2): > 25 µM
CC50 [40]: 54000 nM
Vdss (Rattus norvegicus): 0.155 L/kg

EC50 (Hepatitis C virus [11]): 2 nM
IC50 [12]: 1.2 nM
Kp [20]: 1.2
AUC(0-t) at 24 h [21]: 32900 ng·h/mL
AUC(0-t) at 24 h [22]: 40300 ng·h/mL
hepatic extraction ratio [23]: 0.06
efflux ratio [24]: > 2
Papp A→B [25]: < 2 ×10⁻⁶ cm/s
solubility thermodynamic [26]: 702 µg/mL (≈ 983 µM)
solubility thermodynamic [27]: > 1000 µg/mL
solubility thermodynamic [28]: 0.5 µg/mL (≈ 0.7 µM)
hepatic extraction ratio at 1 µM [29]: 0.33
hepatic extraction ratio at 1 µM [30]: 0.28
hepatic extraction ratio at 1 µM [31]: 0.65
hepatic extraction ratio at 1 µM [32]: 0.01
logD [33]: 2.4
Vdss (Rattus norvegicus): 0.089 L/kg
Structure (SMILES): CC(C)(C)OC(=O)N[C@H]1CCCCC/C=C\[C@@H]2C[C@@]2(C(=O)NS(=O)(=O)C2CC2)NC(=O)[C@@H]2C[C@@H](OC(=O)N3Cc4ccccc4C3)CN2C1=O
